# Measured values as given in patent US7855073B2, “Cells containing a nanopatch sensor in their membrane” (Ben-Gurion University of the Negev Research and Development …, priority 2003, dated 2010).
# Key:
# cultured neuronal cells = test: Detection of membrane perturbations, nanopatch-containing neuron cells; assay type: cell-based, rat; settings: 50 mM in medium; FIG. 7
# Description: Cell cultures were prepared from the Hippocampi of one-day-old rat pups as follows. Tissue was treated for 30 min at 37° C. with 0.25% trypsin (type XI; Sigma), and then gently triturated and the dissociated cells were plated at a concentration of 2×10^5/ml onto poly-D-lysine ([…]; Sigma) and laminin ([…]; Collaborative Research)—coated glass coverslips. Cells were plated in Eagle's minimal essential medium (MEM) containing 10% heat-inactivated fetal bovine serum (HyClone), 2 mM glutamine, and 0.76% glucose. On the following day, the medium was replaced with fresh SF1C medium [Rayport, D. et al. (1992) J. Neurosci. 12, 4264-4280], including B-27 supplements (GIBCO). The cells were grown for up to 12 days in a humid incubator containing 5% CO2/95% air at 37° C. prior to use.
# Cells were incubated with DMPE/DMPG/PDA-1:1:6 (mole ratio) vesicles in TG1 buffer (119 mM NaCl, 5 mM KCl, 30 mM Glucose, 32 mM Sucrose, 20 mM Hepes, pH=7.3) for 1 hour at room temperature. Following the fusion, vesicles were polymerized by UV irradiation at 254 nm for 10 seconds and the unbound vesicles were washed 3 times with TG1 buffer.
# Fluorescent images of the cells were acquired using a Zeiss 200M microscope (Germany) fitted with a CY3 570-650 nm emission range filter (Chroma Technology Corp., Rockingham, Vt.) and CCD cooled camera (PCO). […]
# CHO cells = test: Detection of membrane perturbations, nanopatch-containing CHO cells; assay type: cell-based; settings: FIG. 10
# Description: PDA nanopatch-containing CHO cells were prepared as described in Example 1, hereinabove, and treated with propranolol, a membrane-active pharmaceutical compound.
# U937 cells = test: Detection of membrane perturbations by fluorescence microscopy, nanopatch-containing U937 cells; assay type: cell-based, human
# Description: U937 cells were grown and prepared as described in section 1.1 of Example 1, hereinabove. The precursors of the Lipid/PDA constructs (i.e. a mixture of 10,12-tricosadiynoic acid, PE and PG at a molar ratio of 8:1:1) were prepared and introduced into the cells in accordance with the methods described in sections 1.2 and 1.3 of Example 1.
# Separate aliquots of cells containing the lipid/PDA constructs were then subjected to the membrane-perturbing treatments described below.
# Transmission differential interference contrast (DIC) and fluorescence images of the cells were acquired on a laser scanning confocal microscope (Olympus IX70) with an PlApo 60× objective using oil (NA 1.4). Excitation was at 488 nm using argon laser source. Emitted light was collected through a LP 560 nm filter.
# Erythrocyte "ghosts" = test: Detection of membrane perturbations, nanopatch-containing erythrocyte ghosts; assay type: cell-based; settings: ghosts labeled with DMPC/PDA liposomes; FIG. 11
# Description: Erythrocyte “ghosts” (i.e. emptied cells) were labeled with DMPC/PDA liposomes, following which the nanopatch-containing cells were treated with the membrane active compound melittin.
structure (smiles),measurement,setting,value
[Ca+2] [calcium ions],Fluorescent emission from the red phase of the polydiacetylene polymer,cultured neuronal cells,white fluorescent light emitted by the cells
CC(C)NCC(O)COc1cccc2ccccc12 (centres unmarked) [propranolol],Fluorescent emission associated with perturbation of the PDA-lipid constructs,CHO cells,characteristic fluorescent emission associated with perturbation of the PDA-lipid constructs embedded in the cell membrane is readily observed
CCN(CC)CC(=O)Nc1c(C)cccc1C [lidocaine],Fluorescent emission of the lipid/PDA constructs (membrane perturbation),"U937 cells; 5 μM, 25° C., 5 to 15 minutes, FIG. 5",characteristic fluorescent emission
same,Fluorescent emission of the lipid/PDA constructs (membrane perturbation),"U937 cells; 1 mM, FIG. 8 panel B",characteristic fluorescent emission associated with perturbation of the PDA construct is readily observed
CC[C@H](C)[C@H](NC(=O)CN)C(=O)NCC(=O)N[C@@H](C)C(=O)N[C@H](C(=O)N[C@@H](CC(C)C)C(=O)N[C@@H](CCCCN)C(=O)N[C@H](C(=O)N[C@@H](CC(C)C)C(=O)N[C@H](C(=O)N[C@H](C(=O)NCC(=O)N[C@@H](CC(C)C)C(=O)N1CCC[C@H]1C(=O)N[C@@H](C)C(=O)N[C@@H](CC(C)C)C(=O)N[C@H](C(=O)N[C@@H](CO)C(=O)N[C@@H](Cc1c[nH]c2ccccc12)C(=O)N[C@H](C(=O)N[C@@H](CCCCN)C(=O)N[C@@H](CCCNC(=N)N)C(=O)N[C@@H](CCCCN)C(=O)N[C@@H](CCCNC(=N)N)C(=O)N[C@@H](CCC(N)=O)C(=O)N[C@@H](CCC(N)=O)C(N)=O)[C@@H](C)CC)[C@@H](C)CC)[C@@H](C)O)[C@@H](C)O)C(C)C)C(C)C [melittin],Fluorescent emission of the lipid/PDA constructs (membrane perturbation),"U937 cells; 5 μM and 50 μM, FIG. 8 panels C, D",results in the characteristic fluorescent emission
same,Dependence of fluorescent emission on dose,"U937 cells; 5 μM versus 50 μM, FIG. 8 panels C, D",dose-dependent
same,Fluorescence from transformed red PDA,"Erythrocyte ""ghosts""",fluorescence spots
OC[C@H]1O[C@@](CO)(O[C@H]2O[C@H](CO)[C@@H](O)[C@H](O)[C@H]2O)[C@@H](O)[C@@H]1O [sucrose],Fluorescent emission of the lipid/PDA constructs (membrane perturbation),"U937 cells; 1 M, 25° C., 5 to 15 minutes, FIG. 3",fluorescent emission
